Patent US9371358B2 (priority 2010, dated 2016)
Where two headings read alike, the source gives them in different places.

Experiments:
[1] = test system: human colon cancer cell line (HT-29); assay: MTT cell proliferation assay, cytotoxicity and GI50, HT-29; conditions: read-out: Cytotoxic activity (GI50 Values) HT-29
Procedure: Cell Culture and Cytotoxicity:
(§1) Human prostate cancer cell line (PC-3) and human colon cancer cell line (HT-29) were obtained from the German Collection of Microorganisms. All cell lines were cultivated under conditions recommended by their respective depositors. […] For PC-3 cell lines 500 cells per well and for HT-29 cell lines 1500-2000 cells per well were seeded overnight into 96-well cell culture plates (TPP, Trasadingen, Switzerland) and exposed to serial dilutions of each inhibitor for 3 days. Formazan salt formation was measured at 490 nm using an enzyme-linked immunosorbent assay (ELISA) reader (DYNEX technologies MRX TC II). From each compound four independent replicates were prepared.

[2] = test system: Human prostate cancer cell line (PC-3); assay: MTT cell proliferation assay, cytotoxicity and GI50, PC-3; conditions: read-out: Cytotoxic activity (GI50 Values) PC-3
Procedure: Cell Culture and Cytotoxicity:
as §1

Structure (SMILES) | GI50 ([1]; Homo sapiens, HT-29, 72 h) [pM] | GI50 ([2]; Homo sapiens, PC-3, 72 h) [pM] | GI50 ([1]; HT-29 cells, exposed 3 days, MTT, four independent replicates) [pM] | GI50 ([2]; PC-3 cells, exposed 3 days, MTT, four independent replicates) [pM]
CCCCNC(=O)CN(C(=O)[C@@H](NC(=O)[C@H]1CCCCN1C)[C@@H](C)CC)[C@H](C[C@@H](OC(C)=O)c1nc(C(=O)N[C@@H](Cc2ccccc2)C[C@H](C)C(=O)O)cs1)C(C)C [tubugi A] | 140 | 230 | – | –
CCCCNC(=O)C(C)N(C(=O)[C@@H](NC(=O)[C@H]1CCCCN1C)[C@@H](C)CC)[C@H](C[C@@H](OC(C)=O)c1nc(C(=O)N[C@@H](Cc2ccccc2)C[C@H](C)C(=O)O)cs1)C(C)C (stereo partly shown) [tubugi D] | 560 | 220 | – | –
CC(=O)O[C@H]1C(=O)[C@@]2(C)[C@H]([C@H](OC(=O)c3ccccc3)[C@]3(O)C[C@H](OC(=O)[C@H](O)[C@@H](NC(=O)c4ccccc4)c4ccccc4)C(C)=C1C3(C)C)[C@]1(OC(C)=O)CO[C@@H]1C[C@@H]2O [taxol, reference compound] | 5300 | 7200 | – | –
CC[C@H](C)[C@H](NC(=O)[C@H]1CCCCN1C)C(=O)N(COC(=O)CC(C)C)[C@H](C[C@@H](OC(C)=O)c1nc(C(=O)N[C@@H](Cc2ccc(O)cc2)C[C@H](C)C(=O)O)cs1)C(C)C [tubulysin A, reference compound] | – | – | 320 | 210
CC[C@H](C)[C@H](NC(=O)[C@H]1CCCCN1C)C(=O)N(CC(=O)NC(C)C)[C@H](C[C@@H](OC(C)=O)c1nc(C(=O)N[C@@H](Cc2ccccc2)C[C@H](C)C(=O)O)cs1)C(C)C [tubugi B] | 340 | 290 | – | –
